From patent publication US20220396825A1, “METHOD FOR PREPARING […]” (KAO CORPORATION, priority 2019, published 2022)
“And” between values parts separate entries of the source, which are not always exact repeats. Equal entries are not always repeated.

Assays:
Format in all cases: cell-based, Salmonella typhimurium
genome of TA100 strain [1] = assay: Mutation frequency in 3-MC-exposed library by sequencing utilizing information on complementary strands
genome of TA100 strain [2] = assay: as above; remark: listed apart in the source
Source text: The flows of a sequencing method and mutation analysis used in Comparative Examples and Examples described later will be described in the following. Fundamentally, the highly accurate sequencing method utilizing information on complementary strands, which is described in Patent Literature 4, was used. Specifically, a library was subjected to sequencing, and read pairs expected to be derived from the same DNA fragment were collected. Then, a consensus read sequence (a consensus read sequence considering complementary strands) was generated among read sequences expected to be derived from two complementary strands (hereinafter, referred to as strand A and strand B) of the DNA fragment. Acquired consensus read sequences considering complementary strands were used for mutation analysis.
(§1) DMSO-exposed cells were prepared with the same procedure as in 1) of Comparative Example 1, and TA100 strain was exposed to 3-methylcholanthrene (3-MC) with the same procedure. In DMSO, 3-MC (produced by Sigma-Aldrich Co. LLC., CASRN.56-49-5) was dissolved. Into test tubes, 100 μL of the 3-MC solution, 500 μL of S9 mix (produced by IEDA TRADING Corporation), and 100 μL of the pre-culture solution for TA100 strain were added (amount of 3-MC: 1000 μg/tube), and the resultants were subjected to shaking culture at 100 rpm in a water bath at 37° C. for 20 minutes (3-MC-exposed cells). Cells were collected from the bacterial suspensions, and DNA was extracted with the same procedure as in 1) of Comparative Example 1.
From DNA derived from the DMSO-exposed cells or the 3-MC-exposed cells, a plurality of samples each of which was to give 60 ng or 100 ng of DNA were prepared, and the samples were each fragmented into pieces having a length of approximately 350 bp on average by using a DNA Shearing System ME220. The fragments of each sample were divided into two groups. For the group without nuclease treatment (nontreatment group), the DNA fragments were suspended in Resuspension buffer attached to the TruSeq for End Repair in the subsequent step in accordance with the recommended protocol to afford 60 μL of eluate. For the group with nuclease treatment (treatment group), the DNA fragments were purified through steps of adsorbing on Sample Purification Beads attached to the TruSeq (hereinafter, also expressed as beads, simply), washing twice with 80% ethanol water, and drying in accordance with the recommended protocol. In the subsequent elution operation, the beads were suspended in distilled water (DW, produced by NIPPON GENE CO., LTD.) to afford 30 μL of DNA eluate containing DNA fragments.
To the DNA eluate obtained in I), 4 μL of 10× Reaction Buffer attached to the S1 nuclease was added. The S1 nuclease was appropriately diluted with 1× Reaction Buffer, 1, 3, 10, 30, 100, or 300 U thereof was added to the DNA eluate, and DW was added thereto to a total volume of 40 μL. For the sample to which 1000 U of the S1 nuclease was to be added, 4.6 μL of 10× Reaction Buffer was added to 30 μL of the DNA eluate obtained by beads purification, and 12 μL of the stock solution of the S1 nuclease was added thereto to a total volume of 46 μL. Each reaction solution with the S1 nuclease was incubated at 30° C. for 30 minutes. Assuming that the whole amount of DNA (60 ng) present at the beginning of library preparation existed in each reaction solution, the numbers of units of the S1 nuclease per 1 ng of DNA were 0.02, 0.05, 0.17, 0.50, 1.67, 5.00, and 16.7 U/ng. For inactivation of the S1 nuclease in each reaction solution, 3 μL of 0.5 M EDTA (pH 8.0) (produced by NIPPON GENE CO., LTD.) was added, and the resultant was incubated at 70° C. for 10 minutes. […]

TA100 strain = assay: Ames test (pre-incubation method), number of revertant colonies; settings: S9 mix; for Number of revertants: individual plates 1-3; for Number of revertants, Mean: mean of three plates
Protocol: Exposure of the TA100 cell line to DMSO was performed in accordance with the Ames pre-incubation method (Mol. Mech. Mutagen., 455:29-60, 2000, Sci. Rep. 8 (1):9583). TA100 strain was seeded in 2 mL of Nutrient Broth No. 2 (produced by Oxoid Limited), and subjected to shaking culture at 37° C. and 180 rpm for 4 hours to afford pre-culture solution with an OD660 value of 1.0 or higher. Into test tubes, 100 μL of DMSO, 500 μL of S9 mix (produced by IEDA TRADING Corporation), and 100 μL of the pre-culture solution were added, and the resultants were subjected to shaking culture at 100 rpm in a water bath at 37° C. for 20 minutes (DMSO-exposed cells). After shaking culture for 20 minutes, the test tubes each containing a culture solution were taken out of the water bath, and 50 μL of each culture solution was added to 2 mL of Nutrient Broth solution (containing 18.5% S9 mix) aliquoted in advance, and the resultant was further cultured in an incubator at 37° C. and 180 rpm for 14 hours. After the culture, the bacterial suspensions were collected and centrifuged at 7,500 rpm for 5 minutes, and the supernatants were removed to collect the cells. From the DMSO-exposed cells, total DNA was collected by using a DNeasy Blood & Tissue Kit (produced by QIAGEN) in accordance with the recommended protocol. The double-stranded DNA concentration of each DNA sample obtained was measured by using a Qubit3.0 Fluorometer (produced by Thermo Fisher Scientific) with a Qubit™ dsDNA BR Assay Kit attached thereto.
as §1, with “([…]),” for “(amount of 3-MC: 1000 μg/tube),”
For the Ames test, a bacterial suspension exposed to 3-MC under the above-described conditions was prepared. Thereto, 2 mL of top agar (containing 1% NaCl, 1% agar, 0.05 mM histidine, and 0.05 mM biotin) warmed to 45° C. was added and the resultant was stirred by using a Vortex, and poured onto a minimal glucose agar medium (Tesmedia® AN; produced by Oriental Yeast Co., Ltd.) to form a layer. The resulting plate was subjected to culturing at 37° C. for 48 hours, and the number of colonies observed was counted.

Question: Which “GC → TA mutation frequency increase rate (3MC/DMSO control), SN ratio” value (genome of TA100 strain [1]; library treated with RecJf 0.03 U/ng) does the source give for `Cc1ccc2cc3c(ccc4ccccc43)c3c2c1CC3` [3-MC, 3-methylcholanthrene] here?
Answer: 1.48

Question: What about the “GC → TA mutation frequency increase rate (3MC/DMSO control), SN ratio” value (genome of TA100 strain [1]; library treated with RecJf 0.10 U/ng) of the same compound?
Answer: 2.14

Question: And the “GC → TA mutation frequency increase rate (3MC/DMSO control), SN ratio” value (genome of TA100 strain [1]; library treated with RecJf 0.30 U/ng)?
Answer: 1.68

Question: And the “SN ratio determined from mean values of GC→TA mutation frequency” value (genome of TA100 strain [2]; 3-MC vs DMSO control, without MBN treatment, each n=3)?
Answer: 1.61

Question: What about the “mean value of mutation frequency for GC→TA” value (genome of TA100 strain [2]; 3-MC-exposed, without MBN treatment, n=3) of the same compound?
Answer: 0.176×10^−6

Question: And the “GC → TA mutation frequency increase rate (3MC/DMSO control), SN ratio” value (genome of TA100 strain [2]; MBN experiment, MBN 0 U/ng (nontreatment))?
Answer: 2.04

Question: What about the “GC → TA mutation frequency increase rate (3MC/DMSO control), SN ratio” value (genome of TA100 strain [2]; RecJf experiment, RecJf 0 U/ng (nontreatment)) of the same compound?
Answer: 2.04

Question: What about the “GC → TA mutation frequency increase rate (3MC/DMSO control), SN ratio” value (genome of TA100 strain [2]; library S1 nuclease 0 U/ng (nontreatment)) of the same compound?
Answer: 1.27

Question: And the “GC → TA mutation frequency increase rate (3MC/DMSO control), SN ratio” value (genome of TA100 strain [2]; library treated with MBN 0.03 U/ng)?
Answer: 1.60

Question: And the “GC → TA mutation frequency increase rate (3MC/DMSO control), SN ratio” value (genome of TA100 strain [2]; library treated with MBN 0.10 U/ng)?
Answer: 1.81

Question: What about the “GC → TA mutation frequency increase rate (3MC/DMSO control), SN ratio” value (genome of TA100 strain [2]; library treated with MBN 0.30 U/ng) of the same compound?
Answer: 1.34

Question: What about the “GC → TA mutation frequency increase rate (3MC/DMSO control), SN ratio” value (genome of TA100 strain [2]; library treated with MBN 1.00 U/ng) of the same compound?
Answer: 1.92

Question: And the “GC → TA mutation frequency increase rate (3MC/DMSO control), SN ratio” value (genome of TA100 strain [2]; library treated with RecJf 1.00 U/ng)?
Answer: 1.94

Question: And the “GC → TA mutation frequency increase rate (3MC/DMSO control), SN ratio” value (genome of TA100 strain [2]; library treated with S1 nuclease 0.02 U/ng)?
Answer: 2.1

Question: What about the “GC → TA mutation frequency increase rate (3MC/DMSO control), SN ratio” value (genome of TA100 strain [2]; library treated with S1 nuclease 0.05 U/ng) of the same compound?
Answer: 1.97

Question: What about the “GC → TA mutation frequency increase rate (3MC/DMSO control), SN ratio” value (genome of TA100 strain [2]; library treated with S1 nuclease 0.17 U/ng) of the same compound?
Answer: 2.72

Question: And the “GC → TA mutation frequency increase rate (3MC/DMSO control), SN ratio” value (genome of TA100 strain [2]; library treated with S1 nuclease 0.50 U/ng)?
Answer: 3.75

Question: And the “GC → TA mutation frequency increase rate (3MC/DMSO control), SN ratio” value (genome of TA100 strain [2]; library treated with S1 nuclease 1.67 U/ng)?
Answer: 3.35

Question: And the “GC → TA mutation frequency increase rate (3MC/DMSO control), SN ratio” value (genome of TA100 strain [2]; library treated with S1 nuclease 5.00 U/ng)?
Answer: 1.63

Question: What about the “GC → TA mutation frequency increase rate (3MC/DMSO control), SN ratio” value (genome of TA100 strain [2]; library treated with S1 nuclease 16.7 U/ng) of the same compound?
Answer: 3.59

Question: What about the Number of revertants (TA100 strain; 3-MC 10 μg/plate) of the same compound?
Answer: 887 and 881 and 1279

Question: What about the “Number of revertants, Mean” value (TA100 strain; 3-MC 10 μg/plate) of the same compound?
Answer: 1016

Question: And the Number of revertants (TA100 strain; 3-MC 20 μg/plate)?
Answer: 1539 and 1484 and 1509

Question: What about the “Number of revertants, Mean” value (TA100 strain; 3-MC 20 μg/plate) of the same compound?
Answer: 1511

Question: And the Number of revertants (TA100 strain; 3-MC 100 μg/plate)?
Answer: 1519 and 1539 and 1797

Question: What about the “Number of revertants, Mean” value (TA100 strain; 3-MC 100 μg/plate) of the same compound?
Answer: 1618
